The text below walks through data of patent US20150080579A1, “Salts and Polymorphs of Dexrabeprazole” (Cipla Limited, priority 2010, published 2015).

Series [1] in a line: Storage stability: impurity profile.
Series [2] in a line: Storage stability: water content by KF Autotitrator. The series is classed as physicochemical. The method, then:
Water content was measured using about 0.2 g sample in methanol by KF Autotitrator.

[3] abbreviates: At 6 months, storage at 2° C. to 8° C.
[4] abbreviates: Initial, stability study at 2° C. to 8° C.

dexrabeprazole magnesium hydrate: the “Rise in impurities on storage (in words)” value in series [1] (2° C. to 8° C. for 6 months) is given as “does not show significant rise in impurities”. In series [1] (setting [3]), the “Impurity A” value stood at 0.02%, the “Impurity B” value was 0.07% and the “Impurity C” value is reported as 0.09%. In addition, in series [1] (setting [4]), the “Impurity A” value worked out at 0.02%, the “Impurity B” value was 0.07% and the “Impurity C” value is listed as 0.09%. This compound also had a Water content in series [2] (setting [3]) of 10.46 % w/w. In addition, the Water content in series [2] (setting [4]) was found to be 10.27 % w/w.
Take `COCCCOc1ccnc(C[S@@+]([O-])c2nc3ccccc3[nH]2)c1C` [dexrabeprazole sodium]: the “Impurity A” value in series [1] (setting [3]) came to 0.06%; in series [1] (setting [4]), 0.02%. Moreover, the “Impurity B” value in series [1] (setting [3]) was 1.25%; in series [1] (setting [4]), 0.87%. In addition, the entries for the “Impurity C” value in series [1] (setting [3]) and in series [1] (setting [4]) were 0.33% and 0.22%, respectively. Further, the “Stability on storage (in words)” value in series [1] (on storage) is “not stable on storage”. The “Water absorption on storage (in words)” value in series [2] (2° C. to 8° C. for 6 months) is “absorbed more water than dexrabeprazole magnesium”. Moreover, the values for the Water content in series [2] (setting [3]) and in series [2] (setting [4]) were 13.58 % w/w and 6.84 % w/w, respectively.
